“Also recorded” adds a separate entry of the source.
Experiments:
GM6914 = experiment: MMC cell viability (CellTiterGlo) to identify IC90; format: cell-based, human; conditions: GM6914, MMC for 7 days
Experimental: FIG. 7. Identification of IC90 concentration of MMC on GM6914 and validation of genome wide RNAi screening for MMC resistance. • A) Identification of IC90 concentration of MMC on GM6914. Cells were treated with different doses of MMC for 7 days, and cell viability was measured using CellTiterGlo reagent. […] Cells were transduced with 6 pools of shRNA retrovirus libraries, and selected with puromycin for 48 h. Cells were then treated with MMC for 7 days, and resistant cells were harvested to re-assess their MMC sensitivity by treated with MMC for 3 days. Data shown represented cells transduced by pool #3, 5 and 6. • C) FANCA deficient fibroblast cells (GM6914) were evaluated for MMC sensitivity after shRNA mediated knockdown of SMAD3 and TP53. Survival was measured after 3 days exposure to indicated concentrations of MMC. […] Error bars represent s.e.m. • D) FANCD2 deficient fibroblast cells (PD20) were evaluated for MMC sensitivity after RNAi mediated knockdown of SMAD3 and TP53. Survival was measured after 3 days exposure to indicated concentrations of MMC. […]
(§1) For survival assays, cells were seeded at a density of 1×10^3 cells per well in 96-well plates. After 3-6 days of culture in indicated concentrations of MMC or post exposure of acetaldehyde, viability was assessed using CellTiterGlo reagent (Promega). […] Colonies were counted after crystal violet staining.

Fancd2−/− HSPCs = experiment: Clonogenic assay of HSPCs in methylcellulose; format: cell-based, mouse; conditions: TGF-β1 1 ng/mL, Ab 10 μg/mL or SD208 10 μM; colonies after 7-10 days
Experimental: (§2) (A) Expression of phospho-Smad2/3 proteins in HSPCs from WT and Fancd2−/− mice as detected by flow cytometric analysis. (B) Quantification of mean fluorescence intensity (MFI) of phospho-Smad2/3 staining by flow cytometric analysis shown in (A) in HSPCs from WT and Fancd2−/− mice. (C) Fancd2−/− HSPCs are more sensitive to TGF-β1 than WT HSPCs. Sorted Lin− cells from WT or Fancd2−/− mice were exposed to TGF-β1. After 5 days in culture, LSK cells were analyzed by flow cytometry and quantified. Data are shown after normalizing to untreated WT group. […] Sorted Lin− cells from WT and Fancd2−/− mice were exposed to TGF-β1 (1 ng/mL) with or without TGF-beta 1,2,3 Ab (10 μg/mL) or SD208 (10 μM), and viable cells were counted after 5 days in culture. Data shown are after normalizing to untreated WT group. Error bars represent mean±s.e.m. (F) Clonogenic assay of WT and Fancd2−/− HSPCs treated with TGF-β1, TGF-beta 1, 2, 3 Ab or SD208. […] Hematopoietic colonies were counted after 7-10 days in culture. […] (I) Representative FACS plots of LSK cells analyzed by flow cytometry for GFP expression after 5 days in vitro culture in stem cell culture medium. […] Luciferase activity was measured. (L) Binding of FANCD2 to SMAD1 promoter (region −2108 to −1950 bp) upon DNA damage as detected by ChIP assay using anti-FANCD2 antibody in corrected GM6914 (+FANCA) but not GM6914 (+Vector) fibroblast cells. […]

EUFA316 = experiment: Acetaldehyde sensitivity survival assay; format: cell-based, human; conditions: EUFA316 cells
Experimental: (§3) FIG. 1. TGFβ pathway disruption enhances FA cellular growth. • A) RIGER P value analysis to identify top candidate genes. • B) Clonogenic survival of GM6914 (FA-A fibroblasts) and FANCA-corrected GM6914 cells after shRNA mediated knockdown of SMAD3. Cells were treated with increasing doses of MMC and plated for 10-12 days. The average of two experiments is presented; error bars represent s.e.m.
(§4) For survival assays, cells were seeded at a density of 1×10^3 cells per well in 96-well plates. After 72 hours of culture in indicated concentrations of MMC or post exposure of acetaldehyde, viability was assessed using CellTiterGlo reagent (Promega). In order to assess clonogenicity, cells were seeded at a low density (500-1000 cells per well) in 6-well plates and allowed to form colonies. The cells were then fixed in methanol/20% acetic acid and stained with 1% crystal violet. Colony formation was assessed by solubilizing crystal violet stain with methanol and quantifying UV absorbance for each condition.
as §1

[1] = test system: Lin− cells from WT and Fancd2−/− mice; experiment: Bone marrow Lin− cell growth under TGF-β1; format: cell-based, mouse; conditions: TGF-β1 1 ng/mL; Ab 10 μg/mL or SD208 10 μM; 5 days
Experimental: as §2

[2] = test system: EUFA316 (FA-G fibroblasts); experiment: MMC sensitivity survival assay of FA cells with TGFβ pathway inhibitors; format: cell-based, human
Experimental: as §3, §4
as §4, with “3-6 days” for “72 hours”, “Colonies were counted after” for “Colony formation was assessed by solubilizing”, “staining.” for “stain with methanol and quantifying UV absorbance for each condition.”

U2OS cells [3] = experiment: NHEJ reporter assay; format: cell-based, human; conditions: template reporter assay
[4] = test system: GM6914 cells (FA-A cells); experiment: Traffic light reporter (TLR) assay of HR and NHEJ; format: cell-based, human; conditions: GM6914, 10 μM SD208, 72 hrs
Description: FIG. 17. TGF-β pathway Inhibition Increases HR and Decreases NHEJ activities in FA Cells. • (A, B) TGF-β pathway inhibition affects the choice of HR versus NHEJ pathways in repairing individual DNA breakpoints in FA cells. GM6914 cells (FA-A cells) or FANCA corrected GM6914 cells with shControl or shSMAD3 were used to generate traffic light reporter system, and then were infected with GFP-donor template and I-SceI lentivirus to generate DNA breakpoints. Quantification analysis of HR and NHEJ repair events is shown. (B) The ratio of HR to NHEJ activity based on the data in (A). […] Quantification of HR and NHEJ repair events in GM6914 cells exposed to SD-208 for 72 hrs as detected by traffic light reporter assay described in (A). […] HR assay was measured in U2OS cells with DR-GFP reporter after transduction with lentivirus encoding indicated shRNAs. The representative of three independent experiments is presented. […] (F, G) TGF-β pathway inhibition promotes HR activity in FA cells. Representative images (F) and quantification (G) of RAD51 foci in MMC treated GM6914 (FA-A) cells or FANCA corrected GM6914 cells with shRNA-mediated knockdown of SMAD3. […] One hundred cells were scored for RAD51 foci. […]
the presence of 8 μg/mL polybrene. […] Genome engineering events were analyzed by flow cytometry at 72 hours after transduction. NHEJ is represented by mCherry fluorescence, and HR by GFP fluorescence.

mouse fibroblast cells = experiment: Immunoblot of Smad2 phosphorylation; format: cell-based; conditions: immunoblot of lysates
U2OS cells [5] = experiment: Immunoblot of DNA-PK phosphorylation; format: cell-based, human

SMILES | IC90 (GM6914) [nM] | clonogenic ability of Fancd2−/− HSPCs (Fancd2−/− HSPCs) | survival in the presence of acetaldehyde (EUFA316) | inhibitory effect of TGF-β1 on bone marrow Lin− cell growth [1] | FA cells survival in the presence of MMC ([2]; FA cell lines with inhibitor) | cytotoxicity of corrected FA cells ([2]; corrected FA cells) | NHEJ activity (U2OS cells [3]) | HR activity / HR events [4] | NHEJ events [4] | phosphorylation of Smad2 (mouse fibroblast cells) | phosphorylation of DNA-PK (U2OS cells [5])
CO[C@@]12[C@H](COC(N)=O)C3=C(C(=O)C(C)=C(N)C3=O)N1C[C@@H]1N[C@@H]12 [MMC, mitomycin C] | 19 |  |  |  |  |  |  |  |  |  | 
Fc1ccc(Cl)cc1-c1nc(Nc2ccncc2)c2nccnc2n1 [SD208] |  | markedly enhanced the clonogenic ability | significantly promoted survival | rescues inhibitory effect of TGF-β1 | improved FA cells survival in the presence of MMC | do not significantly alter cytotoxicity of corrected FA cells | decreased NHEJ | increased HR activity; also recorded: increases HR events | decreases NHEJ events | reduced phosphorylation of Smad2 | blocks phosphorylation of DNA-PK

— patent publication US12558369B2, “Compositions and methods of treating Fanconi Anemia” (Dana-Farber Cancer Institute, Inc., priority 2015, dated 2026)
